# From US20190282616A1, “MACROPHAGES REDIRECT PHAGOCYTOSIS BY NON-PROFESSIONAL PHAGOCYTES AND INFLUENCE INFLAMMATION” (University of Virginia Patent Foundation, priority 2016, published 2019)
# Columns and labels:
# [1] = test system: resident peritoneal macrophages; experiment: Apoptotic cell engulfment by resident peritoneal macrophages; type: cell-based, mouse; details: even with supra-physiological concentrations of IGF-1
# Description: (§1) To obtain bone-marrow derived macrophages, femurs were removed from 8 week old mice and flushed with 5 mL of sterile PBS containing 5% FBS. The cell suspension was centrifuged, treated with red blood cell lysis buffer, washed, and then plated onto sterile petri dishes in DMEM containing 10% L929 media, 10% FBS and 1% penicillin/streptomycin/glutamine (PSQ). Media was replenished every 2 to 3 days and differentiated cells were used at day 6 post-harvest. Resident peritoneal macrophages were obtained by flushing the peritoneal cavity of mice with 10 mL of cold PBS containing 5% FBS. Collected cells were spun down, resuspended in X-VIVO 10 (Lonza) and plated at a concentration of 3×10^5 cells per well in a 24 well plate for IGF-1 secretion assays, and 5×10^5 per well in a 24 well plate for engulfment assays. Floating cells were washed the next day and remaining peritoneal macrophages were used 2 days after isolation. Alveolar macrophages were isolated by flushing the lungs with 1 mL of cold PBS instilled intratracheally (five flushes). Collected cells were centrifuged, resuspended in F12K media containing 10% FBS and 1% PSQ, and seeded at 1×10^5 cells per well in a 48-well plate. All floating cells were washed away the next day and remaining cells were used in assays 2 days after isolation.
# [2] = test system: LR73 cells; experiment: In vitro engulfment assay: apoptotic thymocyte uptake by LR73 cells; type: cell-based, hamster
# Description: (§2) LR73, SVEC-40, BEAS-2B, and 16HBE14o-cells were seeded in a 24 well plate. Thymocytes were isolated from 4-6 week old mice and induced to undergo apoptosis with dexamethasone. Thymocytes or prepared microvesicles were then stained with either CypHer5E (GE Healthcare, PA15401) or TAMRA (Invitrogen, C-1171). LR73 and SVEC-40 cells were incubated with apoptotic thymocytes at a 1:10 phagocyte to target ratio, BEAS-2B at a 1:5 phagocyte to target ratio, and 16HBE14o—at a 1:20 phagocyte to target ratio for 2 hours. Mouse IGF-I (Sigma-Aldrich), human IGF-I (Sigma-Aldrich), human IGF-II (Sigma-Aldrich) were added to the phagocytes at the same time as addition of apoptotic targets. For IGFBP3 studies, IGFBP3 (Sigma-Aldrich) was added to media or supernatant from J774 cells for one hour to allow IGFBP3 to bind to any available IGF-I, then the mix is added to phagocytes along with apoptotic targets. For all pharmacological studies, phagocytes were pre-incubated with the compounds listed below for one hour prior to addition of apoptotic targets: cytochalasin D (Sigma-Aldrich, C8273, 1 μM), Latrunculin A (Tocris, 3973, 150 nM), CK-666 (Tocris, 3950, 25 μM-100 μM), OSI-906 (Selleckchem, S1091, 5 nM-40 nM), NVP-AEW541 (Selleckchem, S1034, 25 nM-100 nM), Rapamycin (Sigma-Aldrich, R0395, […]), MK-2206 2HCl (Selleckchem, S1078, 10 nM-1 U0126-EtOH (Selleckchem, S1102, […]), Wortmannin (Sigma-Aldrich, W1628, 50 nM-200 nM), Y27632 (Calbiochem, 688000, 3.75 μM-15 μM), or GSK269962 (Tocris, 4009, 80 nM-2 μM). […] Targets were then washed off three times with PBS, and the cells were dissociated from the plate with trypsin and the engulfment assessed by flow cytometry.
# [3] = test system: J774 macrophage cells; experiment: Apoptotic thymocyte phagocytosis by J774 macrophage cells; type: cell-based; details: even with supra-physiological concentrations of IGF-1, every time point
# [4] = test system: bone marrow derived macrophages; experiment: Apoptotic cell engulfment by bone marrow derived macrophages; type: cell-based, mouse; details: even with supra-physiological concentrations of IGF-1
# Description: as §1
# [5] = test system: LR73 cells; details: liposomes of 150-200 nm; IGF-1 50 ng/mL, EGF or VEGF 100 ng/mL each
# Description: as §2
# Liposomes were prepared by dissolving the lipids (phosphatidylserine, dioleoyl phosphatidylcholine, cholesterol and the lipid DiD dye) in chloroform, evaporating chloroform under flow of argon gas in a glass vial, then subjecting the lipid layer to overnight lyophilization to remove traces of organic solvent. Then normal saline was added for hydration, and intense vortexing was preformed to prepare multilamellar vesicles (MIN). Liposomes were repeatedly filtered through a 0.2 um Nuclepore polycarbonate filter to prepare smaller particles. Particle size was verified by dynamic light scattering using Nicomp 370.
# [6] = test system: 16HBE14o- human airway epithelial cells; experiment: In vitro engulfment assay: apoptotic thymocyte uptake by 16HBE14o- cells; type: cell-based; details: IGF-1 treatment
# Description: LR73, SVEC-40, BEAS-2B, and 16HBE14o-cells were seeded in a 24 well plate. Thymocytes were isolated from 4-6 week old mice and induced to undergo apoptosis with dexamethasone. Thymocytes or prepared microvesicles were then stained with either CypHer5E (GE Healthcare, PA15401) or TAMRA (Invitrogen, C-1171). LR73 and SVEC-40 cells were incubated with apoptotic thymocytes at a 1:10 phagocyte to target ratio, BEAS-2B at a 1:5 phagocyte to target ratio, and 16HBE14o—at a 1:20 phagocyte to target ratio for 2 hours. Mouse IGF-I (Sigma-Aldrich), human IGF-I (Sigma-Aldrich), human IGF-II (Sigma-Aldrich) were added to the phagocytes at the same time as addition of apoptotic targets. For IGFBP3 studies, IGFBP3 (Sigma-Aldrich) was added to media or supernatant from J774 cells for one hour to allow IGFBP3 to bind to any available IGF-I, then the mix is added to phagocytes along with apoptotic targets. […] Targets were then washed off three times with PBS, and the cells were dissociated from the plate with trypsin and the engulfment assessed by flow cytometry.
# [7] = test system: IC-21 cells; experiment: Apoptotic thymocyte engulfment by IC-21 cells; type: cell-based; details: indicated concentrations of mouse IGF-1 or human insulin
# [8] = test system: resident peritoneal macrophages; experiment: Liposome uptake by resident peritoneal macrophages; type: cell-based, mouse; details: exposed to IGF-1 vs control
# Description: as §1
# [9] = test system: IGF-1R, Akt and Erk1/2 phosphorylation in LR73 cells; experiment: Immunoblotting of signaling in LR73 cells; type: cell-based, hamster; details: LR73 cells, IGF-1 treatment
# Description: LR73, J774, or BEAS-2B cells were seeded in a 60 mm dish at a concentration of 5×10^5. […] Cells were lysed in RIPA buffer and used in Western blots. The blots were probed for phospho-Erk1/2 (Cell Signaling Technology, #4370), phospho-Akt (Cell Signaling Technology, #4060), phospho-IGF-1R (Cell Signaling, #3024), total Erk2 (Santa Cruz Biotechnology, #sc-154-G), total Akt (Cell Signaling Technology, #4691), total IGF-1R (Cell Signaling, #9750), and anti-B-actin-HRP (Sigma-Aldrich, #A3854) followed by chemiluminescence detection.
# [10] = test system: phosphatidylserine (PtdSer) on apoptotic thymocytes; experiment: Annexin V binding to apoptotic thymocytes; type: cell-based, mouse; details: n=6
# [11] = test system: YFP airway epithelial cells; experiment: In vivo engulfment assay: airway epithelial cells; set-up: species or system mouse; details: 1 μg IGF-1 intranasally
# Description: (§3) CCSP-Cre/YFP mice were administered PBS or 1 μg of IGF-1 intranasally. One hour later, 100 million CypHer5E-labelled apoptotic thymocytes with or without IGF-I were injected intranasally for 3.5 hours. The BAL fluid was harvested and the lungs excised, minced, and digested into a single cell suspension. The cells were then stained with appropriate markers: CD11c and Siglec F for alveolar macrophage markers and EpCam (along with YFP expression) for airway epithelial cells and analyzed by flow cytometry to assess apoptotic cell uptake by the airway epithelial cells and the alveolar macrophages.
# [12] = test system: alveolar macrophages; experiment: In vivo engulfment assay: alveolar macrophages; set-up: species or system mouse; details: same IGF-1 treated mice
# Description: as §3
substance,measurement,setting,value
insulin-like growth factor I [IGF-1],corpse uptake by resident peritoneal macrophages,[1],did not affect corpse uptake
same,engulfment with IGF-1 added simultaneously with apoptotic cells,[2]; data not shown,inhibited engulfment similar to pre-treated cells
same,apoptotic cell uptake (engulfment) by LR73 cells,"[2]; soluble mediator alone, IGF-I at concentrations reported in serum (100-600 ng/mL), other factors over a range of concentrations",significantly dampened apoptotic cell uptake
same,apoptotic cell uptake by LR73 cells with macrophage produced IGF-1,[2]; supernatant of J774 cells treated with rIL-4 for 24 hrs,could also suppress apoptotic cell uptake by LR73 cells
same,corpse uptake by J774 cells,[3],did not affect corpse uptake
same,corpse uptake by bone marrow-derived macrophages,[4],did not affect corpse uptake
same,uptake of PtdSer containing liposomes by LR73 cells,[5],enhanced the uptake of PtdSer containing liposomes
same,apoptotic thymocyte uptake by 16HBE14o- cells,[6],engulfment dampening effect of IGF-1 was also seen
same,corpse uptake by IC-21 cells,[7],did not affect corpse uptake
same,liposome uptake by peritoneal macrophages,[8],comparable liposome uptake as control treated cells
same,phosphorylation of Akt,[9],elicited phosphorylation of Akt
same,masking of phosphatidylserine on apoptotic cells (Annexin V binding),[10],not due to masking phosphatidylserine
same,apoptotic cell engulfment by YFP airway epithelial cells in vivo,[11]; apoptotic thymocytes,decreased apoptotic cell engulfment
same,liposome uptake by YFP airway epithelial cells in vivo,[11]; liposomes,enhanced lipo some uptake
same,engulfment of apoptotic cells or liposomes by lung macrophages in vivo,[12],unaffected in their ability to engulf these targets
